# Results taken from patent US6376169B1, “Method for diagnosing a vascular condition” (Queens University at Kingston, priority 1998, dated 2002).
# “Also recorded” adds a separate entry of the source. Counter-ions that a name gives are not always drawn. Like-named read-outs stand apart in the source and are kept apart here.
# Legend:
# [1] = tested on: APO-induced erections; test: Apomorphine (APO) bioassay of erectile function; type: in vivo, Wistar rats
# Excerpt: 16 adult male Wistar rats from Charles River Laboratories (Montreal, Quebec) weighing 300-350 g were used in the investigation. The animals were divided into two study groups. The animals were individually housed in a climate-controlled room under a 12-hour light/dark cycle and allowed access to food (Purina Lab Chow) and water ad libitum. All procedures were in accordance with the guidelines set out by the Canadian Council on Animal Care. The animals were allowed to acclimate 5 days prior to testing and were handled by the researcher during this time.
# The apomorphine (APO) bioassay of erectile function was performed in an isolated area. […] The animals were each placed in a separate hanging wire test cage in an isolated, dark and sound proof room and allowed to acclimatize to the surroundings for 10 minutes. Each rat received 80 ug/kg APO (Sigma Chemical Co., St. Louis, Mo.) prepared in physiological saline containing […] ascorbic acid via subcutaneous (s.c.) injection (lml/kg at the nape of the neck). Erectile and yawning responses to APO were monitored and recorded (30 minutes) in an adjacent room via a video monitoring system.
# (§1) An erection was counted when an engorged glans penis and distal shaft were exposed. A wide opening of the mouth associated with appropriate respiratory movement identified a yawn. […] Rats with unsatisfactory control erectile response were removed from further study.
# Yawns were not altered in either protocol (data not shown).
# The 270 mg/kg dose was prepared, requiring initial heating and stirring. This dose was administered in a single injection (1 ml/kg, i.p. of a 270 mg/ml concentration) half an hour prior to the commencement of APO-induced erectile monitoring.
# At one week intervals, rats were given single, increasing doses of flutamide (25, 35, or 50 mg/kg) (Sigma Chemical Co., St. Louis, Mo.). For each dose, flutamide was dissolved in peanut oil and administered via i.p injection in a volume of 1 ml/kg. […] Each dose of flutamide was given 1 week after the previous dose, to allow APO-induced erections to return to control levels.
# From the group of 8 rats, 4 rats were randomly selected.
# Testosterone was administered in an attempt to recover APO-induced erections to control levels.
# The required testosterone concentrations were prepared using 100 mg/ml testosterone propionate (Taro Pharmaceuticals, Brarnalea, ON.) diluted in peanut oil. Each dose was administered in a 1 ml/kg volume.
# For each APO testing protocol, the average number of erections and standard deviation was determined. […] Therefore, each rat served as its own control. Treated values were compared to control values using Student's paired t-test, except where noted in Study 2b.
# [2] = tested on: APO-induced yawns; test: APO-induced yawning response; type: in vivo, Wistar rats
# Description: The apomorphine (APO) bioassay of erectile function was performed in an isolated area. The rat model of APO-induced erections used to assess the effects of p,p-DDE and flutamide on erectile function was based on the model developed by Heaton et al J Urol. 145:1099 (1991). The animals were each placed in a separate hanging wire test cage in an isolated, dark and sound proof room and allowed to acclimatize to the surroundings for 10 minutes. Each rat received 80 ug/kg APO (Sigma Chemical Co., St. Louis, Mo.) prepared in physiological saline containing […] ascorbic acid via subcutaneous (s.c.) injection (lml/kg at the nape of the neck). Erectile and yawning responses to APO were monitored and recorded (30 minutes) in an adjacent room via a video monitoring system.
# as §1
# [3] = tested on: RTP/Drg1 protein; test: Western blot of RTP/Drg1 protein in MDA-MB-231 cells; type: cell-based, human; details: 20% oxygen, up to 72 h; 100 μM cobalt chloride, 30 mM Tiron or 100 μM DFO
# Description: (§2) To determine whether hypoxia regulates the expression of certain genes (e.g., PAI-1, uPAR, RTP/Drg1) via an iron-containing heme protein, cells were cultured for up to 72 h at 20% oxygen in the presence or absence of either 100 μM cobalt chloride, or 30 mM sodium 4,5-dihydroxybenzene-1,3-disulfonate (Tiron), or 100 μM desferrioxamine mesylate (DFO) (Sigma Chemical CO., St. Louis, Mo.). Further confirmation of the role of a heme protein in hypoxic responses can be achieved by culturing cells under hypoxia in the presence of carbon monoxide, which maintains the heme protein in the oxy state and thereby blocks heme protein-mediated hypoxic responses. Thus, cells were also cultured for 24 h at 37° C. under hypoxic conditions in the presence of 30% carbon monoxide.
# Western Blot Analysis. To examine levels of RTP/Drg1 protein, cells were lysed with buffer containing 40 mM HEPES pH 7.2, 100 mM NaCl, 20% glycerol, 0.1 mM EDTA pH 8.0, 0.2% Triton X-100 (polyoxyethylene (10) isooctylphenyl ether), 1 mM DTT, and 2 mM PMSF, and centrifuged briefly at 4° C. The supernatants were collected and stored at −80° C. until use. SDS-PAGE was performed and resolved proteins were transferred to Immobilon-P membranes (Millipore Corp., Bedford, Mass.) using a semi-dry transfer cell (Bio-Rad Laboratories, Mississauga, ON). Membranes were blocked by incubation overnight at 4° C. in a PBS-buffered solution containing 0.01% Tween 20 (polyoxyethylene(20) sorbitan monolaurate) (PBS-T) and 5% casein. The blots were then incubated with polyclonal rabbit anti-Drg1 antiserum followed by incubation with a peroxidase labeled goat anti-rabbit IgG secondary antibody (Vector Lab. Inc., Burlingame, Calif.). Antigen was detected by enhanced chemiluminescence (ECL, Amersham Canada Inc., Oakville, ON) and exposure of the membrane onto Dupont Reflection NEF film (Dupont Canada, Inc., Mississauga ON).
# [4] = tested on: RTP/Drg1 mRNA; test: Northern blot of RTP/Drg1 mRNA in MDA-MB-231 cells; type: cell-based, human; details: 20% oxygen, up to 72 h; 100 μM cobalt chloride, 30 mM Tiron or 100 μM DFO
# Description: as §2
# Northern Blot Analysis. Total RNA was isolated from cell lines as described above. Aliquots of 20 μg were denatured and subjected to electrophoresis in 1% agarose-formaldehyde gels (Sambrook, J., Fritsch, E. F., and Maniatis, T. Molecular Cloning: A Laboratory Manual, Cold Spring Harbor Laboratory, Cold Spring Harbor, N.Y. (1989)). RNA was transferred to nylon membranes (Micron Separations, Inc., Westboro, Mass.). After prehybridization at 42° C. for 2-3 h in 50% formamide, 5×Denhardt's solution, 0.5% sodium dodecyl sulfate (SDS), 6×SSC (1×SSC: 0.15M NaCl, 15 mM sodium citrate, pH 7.0), and 100 μg/mL denatured salmon sperm DNA, membranes were hybridized for a period of time of overnight (˜18 h) to about 72 h at 42° C. with a cDNA probe (e.g., RTP/Drg1, PAI-1 (PAI-1 cDNA provided by Dr. Keith McCrae, Temple University School of Medicine, Philadelphia, Pa.), uPAR (Higazi A, et al., J Biol Chem 266:12752, (1995)) pre-labeled with [^32P]-dCTP using a Pharmacia Oligolabelling kit (Pharmacia Biotech, Piscataway, N.J.). The hybridization solution contained 6×SSC, 0.5% SDS, 100 μg/mL denatured salmon sperm DNA, 50% formamide and cDNA probe. After hybridization, the membranes were washed with 2×SSC and 0.5% SDS at room temperature for 15 min, 2×SSC and 0.1% SDS at room temperature for 15 min, and 0.1×SSC and 0.5% SDS for 30 min. Dupont Reflection NEF film (Dupont Canada, Inc., Mississauga, ON) was exposed to the membranes for 1-3 days at −80° C. Bands on radiographic film were analyzed using a SigmaGel gel analysis software package (Jandel Scientific Software, San Rafael, Calif.).
# [5] = tested on: hepatic cytochromes P450; details: literature; cited from earlier work
# [6] = pubertal or adults rats, Kelce et al; cited from earlier work
# [7] = tested on: RTP/Drg1; details: endothelial cells treated with homocysteine; cited from earlier work
# [8] = tested on: RTP/Drg1; details: A549 cells exposed to nickel; cited from earlier work
# [9] = tested on: uPAR mRNA; test: Northern blot of uPAR mRNA in HTR-8/SVneo cells; type: cell-based, human; details: 10 ng/ml VEGF, 24 h, normoxic conditions
# Description: as §2, with “Thus, cells were also cultured for 24 h at 37° C. under hypoxic conditions in the presence of 30% carbon monoxide.” left out
# Northern Blot Analysis. Total RNA was isolated from cell lines as described above. […] RNA was transferred to nylon membranes (Micron Separations, Inc., Westboro, Mass.). […] The hybridization solution contained 6×SSC, 0.5% SDS, 100 μg/mL denatured salmon sperm DNA, 50% formamide and cDNA probe. After hybridization, the membranes were washed with 2×SSC and 0.5% SDS at room temperature for 15 min, 2×SSC and 0.1% SDS at room temperature for 15 min, and 0.1×SSC and 0.5% SDS for 30 min. Dupont Reflection NEF film (Dupont Canada, Inc., Mississauga, ON) was exposed to the membranes for 1-3 days at −80° C. Bands on radiographic film were analyzed using a SigmaGel gel analysis software package (Jandel Scientific Software, San Rafael, Calif.).
# [10] = tested on: uPAR; details: vascular endothelial cells; cited from earlier work
compound,measurement,setting,value
"CCC(=O)O[C@H]1CC[C@H]2[C@@H]3CCC4=CC(=O)CC[C@]4(C)[C@H]3CC[C@]12C [testosterone, testosterone propionate]","APO-induced erections in p,p-DDE treated rats after testosterone supplementation","[1]; 480 ug/kg, 1.2 or 2.4 mg/kg i.p., 0.5, 4, 12 hours, two weeks after p,p-DDE",no significant increases in erections; also recorded: remained significantly decreased at most of the time points; also recorded: failed to return APO-induced erections to control levels
same,APO-induced yawning responses after testosterone supplementation,"[2]; p,p-DDE treated rats, 12 hour test periods",did not change the status of yawning responses
"CC(=O)N(O)CCCCCNC(=O)CCC(=O)N(O)CCCCCNC(=O)CCC(=O)N(O)CCCCCN [DFO, desferrioxamine mesylate]",levels of RTP/Drg1 protein,[3],time-dependent increases in RTP/Drg1 protein
same,levels of RTP/Drg1 mRNA,[4],time-dependent increases in RTP/Drg1 mRNA
"ClC(Cl)=C(c1ccc(Cl)cc1)c1ccc(Cl)cc1 [p,p-DDE]",APO-induced erections,"[1]; 270 mg/kg p,p-DDE i.p., 5 hour testing period, Study 1",no significant effect
same,APO-induced erectile response,"[1]; 500 mg/kg p,p-DDE i.p., 3 hours after administration, Study 1",significant decrease
same,APO-induced erectile response two weeks after administration,"[1]; 500 mg/kg p,p-DDE vs control and 50 mg/kg flutamide",significantly different from controls and from the flutamide two week response; also recorded: remained significantly lower than controls; also recorded: significantly different from both control and 50 mg/kg flutamide responses
same,"APO-induced erections, time course","[1]; single dose 500 mg/kg p,p-DDE, 0.5, 4, 12, 24 hours and 2 weeks, 500 mg/kg",significantly decreased; also recorded: persistently suppressed
same,APO-induced yawns,"[2]; 500 mg/kg p,p-DDE, two week assessment",not significantly different from control levels; also recorded: little effect
same,APO-induced yawning responses,"[2]; p,p-DDE treatment, Study 1",not altered
same,metabolism upon administration / absorption,[5],not metabolised
same,plasma testosterone levels,[6],did not alter plasma testosterone levels
CC(C)C(=O)Nc1ccc([N+](=O)[O-])c(C(F)(F)F)c1 [flutamide],metabolism upon administration / absorption,[5],rapidly metabolised by hepatic cytochromes P450
N[C@@H](CCS)C(=O)O [homocysteine],expression of RTP/Drg1,[7],increased
[Ni] [nickel],expression of RTP/Drg1,[8],increased
VEGF,induction of uPAR mRNA,[9],did not result in increased levels of uPAR transcript; also recorded: does not induce
same,expression of uPAR,[10],increases the expression of uPAR
